# Several values for one entry are separate records, joined by “and”; a condition that tells them apart may be missing. Equal values may be shown once. Numbers after ± are expanded uncertainties.
# Key:
# [1] = Liquid, Ebulliometric method (Recirculating still)
# [2] = refractive index (Na D-line) (dimensionless); settings: 293.15 K; 101.33 kPa; Liquid; Standard Abbe refractometry
Structure (SMILES),vapor or sublimation pressure ([1]; 303.15 K),vapor or sublimation pressure ([1]; 323.15 K),vapor or sublimation pressure ([1]; 343.15 K),refractive index [2],vapor or sublimation pressure ([1]; 329.15 K),vapor or sublimation pressure ([1]; 313.15 K)
CC(C)CO [2-methyl-1-propanol],2.01 ± 0.22 kPa,7.11 ± 0.23 kPa,20.47 ± 0.24 kPa,1.3958 ± 0.002,,
CCC(C)O (stereo unspecified) [butan-2-ol],3.27 ± 0.23 kPa,,29.58 ± 0.26 kPa,1.3976 ± 0.002,14.83 ± 0.23 kPa and 14.37 ± 0.23 kPa,
CCCCCC [hexane],25.09 ± 0.28 kPa,54.3 ± 0.29 kPa,105.38 ± 0.71 kPa,1.3725 ± 0.002,66.87 ± 0.39 kPa and 67.73 ± 0.39 kPa,

# The next lines start with the values.
vapor or sublimation pressure ([1]; 303.15 K),vapor or sublimation pressure ([1]; 323.15 K),vapor or sublimation pressure ([1]; 343.15 K),refractive index [2],vapor or sublimation pressure ([1]; 329.15 K),vapor or sublimation pressure ([1]; 313.15 K),Structure (SMILES)
3.9 ± 0.22 kPa,12.19 ± 0.23 kPa,,1.3853 ± 0.002,,7.02 ± 0.23 kPa and 6.93 ± 0.23 kPa,CCCO [propan-1-ol]
4.27 ± 0.22 kPa,12.38 ± 0.23 kPa,,1.3333 ± 0.002,,7.44 ± 0.23 kPa and 7.34 ± 0.23 kPa,O [water]

# Source: the NIST ThermoML archive (doi:10.1021/acs.jced.9b00102)
